According to patent US8629116B2, “Method for inducing a TRIF-bias” (priority 2008, dated 2014):
Read-outs that look alike come from different tables or passages of the source.

Target: T1, TLR4 receptor complex (Homo sapiens, UniProt O00206+Q9Y6Y9)
T1 construct: endogenous in cells; host or cells: primary human adherent monocytes isolated from PBMCs of healthy donors
Assay: Inhibition of CRX-527- or LPS-induced cytokines by CRX-547 in primary human adherent monocytes
Type: cell-based
Details: for IC50: added simultaneously
Method: Peripheral blood mononuclear cells (PBMCs) are isolated from the blood of healthy donors via a Ficoll Hypaque 1.077 gradient and treated with agonists or are used to isolate adherent monocytes in monocyte media (RPMI 1640 (ATCC), 10% human AB serum (Lonza/BioWhittaker), 100 U/mL penicillin/100 ug/mL streptomycin (Sigma), 50 uM 2-mercaptoethanol (Sigma) as described (Stover et al. 4440-49; Kawai et al. 5887-94; Gervassi et al. 7231-39). Monocyte-derived macrophages are produced by incubating adherent monocytes for 5 days in monocyte media with 50 ng/mL rhM-CSF (R&D Systems) with media changes at day 3 and day 5 before agonist treatment. Monocyte-derived dendritic cells (DC) are produced by incubating adherent monocytes for 7 days in monocyte media with 10 ng/mL rhGM-CSF and 10 ng/mL rhIL-4 (R&D Systems) with media changes on day 3 and day 6.
CRX-527 signals through the TLR4/MD2 receptor complex leading to activation of transcription factors that lead to induction of cytokines and chemokines. […] (FIG. 10).
To that end, human primary monocytes are treated with a dose range of CRX-527 in the presence of increasing concentrations of CRX-547.
The resulting dose-response curves are fit with a 4 parameter logistic equation.
Plotting the log EC50 shift (DR-1) for each concentration of CRX-547 versus the log of the concentration of CRX-547 (Schild regression) allows us to compare the calculated affinity (Kbapp) with the EC50 for CRX-547 calculated from the CRX-547 and CRX-527 dose-response curve. […] (FIG. 10B.)

T1 sequence (O00206 24-839): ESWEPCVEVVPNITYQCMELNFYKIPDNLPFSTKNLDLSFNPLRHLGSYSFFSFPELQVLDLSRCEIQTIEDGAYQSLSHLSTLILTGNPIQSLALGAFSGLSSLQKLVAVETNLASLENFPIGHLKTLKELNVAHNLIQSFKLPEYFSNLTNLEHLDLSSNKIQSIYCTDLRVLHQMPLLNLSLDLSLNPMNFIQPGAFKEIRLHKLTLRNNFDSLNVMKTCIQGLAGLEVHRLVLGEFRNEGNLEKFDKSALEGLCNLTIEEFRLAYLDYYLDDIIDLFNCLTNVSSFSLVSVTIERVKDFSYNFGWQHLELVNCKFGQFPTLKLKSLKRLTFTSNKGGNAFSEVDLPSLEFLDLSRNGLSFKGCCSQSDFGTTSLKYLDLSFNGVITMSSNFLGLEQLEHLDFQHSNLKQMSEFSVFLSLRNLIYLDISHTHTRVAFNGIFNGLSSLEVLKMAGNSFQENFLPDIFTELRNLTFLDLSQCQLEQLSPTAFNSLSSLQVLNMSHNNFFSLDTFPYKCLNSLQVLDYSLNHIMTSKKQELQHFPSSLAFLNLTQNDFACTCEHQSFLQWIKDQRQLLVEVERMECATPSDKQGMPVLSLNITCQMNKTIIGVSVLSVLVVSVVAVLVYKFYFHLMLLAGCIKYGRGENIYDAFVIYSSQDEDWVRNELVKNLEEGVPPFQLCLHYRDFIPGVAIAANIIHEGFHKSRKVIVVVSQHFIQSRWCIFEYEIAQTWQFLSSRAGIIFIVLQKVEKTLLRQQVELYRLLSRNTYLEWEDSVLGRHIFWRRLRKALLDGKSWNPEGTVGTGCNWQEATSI
T1 sequence (Q9Y6Y9 19-160): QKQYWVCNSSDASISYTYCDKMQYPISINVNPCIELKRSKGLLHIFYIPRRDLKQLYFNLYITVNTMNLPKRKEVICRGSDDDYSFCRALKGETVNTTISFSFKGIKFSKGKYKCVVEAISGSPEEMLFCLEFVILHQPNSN

**Q.** With `CCCCCCCCCCCC(CC(=O)NC(COC1OC(CO)C(OP(=O)(O)O)C(OC(=O)CC(CCCCCCCCCCC)OC(=O)CCCCCCCCC)C1NC(=O)CC(CCCCCCCCCCC)OC(=O)CCCCCCCCC)C(=O)O)OC(=O)CCCCCCCCC.CCN(CC)CC` (stereo not drawn) [CRX-547] as the compound, how does the “effect of CRX-547 on MCP-1 (TRIF-dependent) induction by fixed CRX-527 or LPS” value (at higher concentrations of CRX-547) read?
**A.** increased additively

**Q.** And the IC50 (fixed CRX-527 100 nM, read-out: IC50 for inhibition of TNFα induction by CRX-527)?
**A.** 0.048 ± 0.03 µM

**Q.** And the IC50 (fixed LPS 100 nM, read-out: IC50 for inhibition of TNFα induction by LPS)?
**A.** 0.018 ± 0.012 µM

**Q.** And the “effect of CRX-547 on TNFα induction by fixed concentration of CRX-527 or LPS” value (increasing CRX-547 added prior to CRX-527 or LPS)?
**A.** inhibited

**Q.** And the “agonist character for induction of MyD88-dependent cytokines/chemokines” value (relative to CRX-527 and LPS, monocytic cells)?
**A.** partial agonist

**Q.** What about the Kd (shift of CRX-527-induced TNFα dose-response curves, read-out: affinity estimate (Kbapp) by Schild regression) of the same compound?
**A.** 0.00033 µM
